“Also recorded” adds a separate entry of the source.
Columns and labels:
MC-38 tumor cells [1] = experiment: FACS analysis of the tumors at necropsy, MC-38 CRC tumor model (Example 7); type: in vivo, mice
Description: The combined treatment with Plinabulin and a PD-1 checkpoint inhibitor in combination with a CTLA-4 checkpoint inhibitor was tested in comparison with the treatment with Plinabulin alone, the treatment with PD-1 antibody alone, or the treatment with PD-1 antibody in combination with CTLA-4 antibody. The tests were performed using seven to ten-week old mice that were injected subcutaneously with MC-38 tumor cells. Six testing groups were prepared, and each group included 10 mice.
Group 1 was administered with IgG2a and plinabulin vehicle; Group 2 was administered with Plinabulin dissolved in diluent at a concentration of 7.5 mg/kg; Group 3 was administered with PD-1 antibody; Group 4 was administered with a Plinabulin/PD-1 antibody combined treatment; Group 5 was administered combined PD-1/CTLA-4 antibodies; and Group 6 was administered combined PD-1 antibody/CTLA-4 antibody/Plinabulin treatment. For the Plinabulin/PD-1 antibody combined treatment (Group 4) and the Plinabulin/PD-1/CTLA-4 antibody treatment (Group 6), the mice were administered twice per week (Day 1 and Day 4 of each week) with Plinabulin (7.5 mg/kg) that was dissolved in diluent, followed by administering antibody (ies) one hour after each Plinabulin administration. For the Plinabulin only treatment (Group 2) or the antibody (ies) only treatment (Groups 3 and 5), mice were administered Plinabulin (7.5 mg/kg dissolved in diluent) or antibody (ies) alone twice per week (Day 1 and Day 4 of each week).
Each treatment started at tumor size of around 125 mm^3 and continued until tumor size of 3000 mm^3 was reached. […] To determine the efficacy of each treatment, the following data were collected: mortality rate prior to tumor size reaching 3000 mm^3; the body weight of the mice assessed twice weekly both prior to treatments; the rate of tumor growth as determined by the tumor size measurement (twice every week); the tumor growth index; overall survival rate; the tumor weight at necropsy; and the time required to increase tumor size 10 fold. […]

SP37A3 DCs [2] = experiment: Expression of DC maturation markers CD40, CD80, CD86 and MHCII by flow cytometry; type: cell-based, mouse; details: 0.001-10 μM, 20 h
Description: Cell lines: The immature mouse DC cell line SP37A3 (provided by Merck KGaA) was cultured in Iscove's Modified Dulbecco's Medium (IMDM; Sigma) supplemented with 10% heat-inactivated and endotoxin-tested FBS (PAA), sodium pyruvate (Gibco), penicillin/streptomycin L-glutamine mix (Gibco), Eagle's Minimum Essential Medium (MEM) nonessential amino acids (Sigma), Ciproxin (Bayer), and 0.05 mmol/L 2-mercaptoethanol (Gibco). IMDM complete medium was supplemented with 20 ng/mL recombinant mouse GM-CSF and 20 ng/mL recombinant mouse M-CSF (both Peprotech). The murine tumor cell lines EG7 and 3LL-OVA were obtained from ATCC or provided by Douglas T. Fearon (Cancer Research UK Cambridge Institute, Li Ka Shing Centre, University of Cambridge, Cambridge, UK), respectively. All cell lines were tested and validated to be Mycoplasma-free. Expression of OVA in EG7 and 3LL-OVA, and of Thy1.1 in RMAThy1.1, respectively, was confirmed; no genomic authentication was performed.
SP37A3 DCs (murine DC line, Merck) were plated (8×10^4 cells/well, 96-well flat bottom, tissue-culture treated) in 180 uL IMDM complete medium [IMDM medium (Sigma) supplemented with 10% heat-inactivated and endotoxin-tested FBS (PAA), sodium pyruvate (Gibco), penicillin/streptomycin L-glutamine mix (Gibco), MEM nonessential amino acids (Sigma) and 0.05 mM 2-mercaptoethanol (Gibco)]. IMDM complete medium was supplemented with 20 ng/mL recombinant mouse GM-CSF. DCs were allowed to adhere for two hours before Plinabulin, medium, or LPS as controls were added 10× concentrated in 20 uL. DCs were incubated with Plinabulin in various concentrations (0.001 μM, 0.01 μM, 0.1 μM, 1 μM, 10 μM), medium, and LPS respectively for 20 h. Supernatants of these cultures were collected and used for detection of cytokine production by ELISA (kits available from BD) and the cells were stained with the LD-IR viability dye (Invitrogen) as well as with fluorochrom-labeled monoclonal antibodies against CD80, CD86, CD40 and MHCII for flow cytometric analysis. Cells were analyzed using a BD Fortessa Cytometer equipped with DIVA software. Mean fluorescence intensity (MFI) of the DC maturation markers CD40, CD80, CD86 and MHCII in live cells was normalized to the MFI of those markers detected in untreated (medium) DCs.
Two other cancer drugs, Paclitaxel and Etoposide, were also tested to compare their effects on DC maturation with Plinabulin. […] Cells were analyzed using a BD Fortessa Cytometer equipped with DIVA software. Mean fluorescence intensity (MFI) of the DC maturation markers CD40 (FIG. 2A), CD80 (FIG. 2B), CD86 (FIG. 2C) and MHCII (FIG. 2D) in live cells was normalized to the MFI of those markers detected in untreated (medium) DCs. […]

MC-38 tumor cells [3] = experiment: MC-38 tumor model, Plinabulin with PD-1 antibody and CTLA-4 antibody (Example 7); type: in vivo, mice; details: Example 7, FIG. 4B; six treatment groups
Description: The combined treatment with Plinabulin and a PD-1 checkpoint inhibitor in combination with a CTLA-4 checkpoint inhibitor was tested in comparison with the treatment with Plinabulin alone, the treatment with PD-1 antibody alone, or the treatment with PD-1 antibody in combination with CTLA-4 antibody. The tests were performed using seven to ten-week old mice that were injected subcutaneously with MC-38 tumor cells. Six testing groups were prepared, and each group included 10 mice. Group 1 was administered with IgG2a and plinabulin vehicle; Group 2 was administered with Plinabulin dissolved in diluent at a concentration of 7.5 mg/kg; Group 3 was administered with PD-1 antibody; Group 4 was administered with a Plinabulin/PD-1 antibody combined treatment; Group 5 was administered combined PD-1/CTLA-4 antibodies; and Group 6 was administered combined PD-1 antibody/CTLA-4 antibody/Plinabulin treatment. For the Plinabulin/PD-1 antibody combined treatment (Group 4) and the Plinabulin/PD-1/CTLA-4 antibody treatment (Group 6), the mice were administered twice per week (Day 1 and Day 4 of each week) with Plinabulin (7.5 mg/kg) that was dissolved in diluent, followed by administering antibody (ies) one hour after each Plinabulin administration. […] At necropsy the tissues were weighed and subjected to FACS analysis.

SP37A3 DCs [4] = experiment: DC viability (SytoxGreen staining); type: cell-based, mouse; details: FIG. 1B, 0.001-10 μM, 20 h
SP37A3 DCs [5] = experiment: Production of pro-inflammatory cytokines by DCs (ELISA of supernatants); type: cell-based, mouse; details: Example 2, FIG. 3A-3C, 20 h
Description: Two other cancer drugs, Paclitaxel and Etoposide, were also tested to compare their effects on DC maturation with Plinabulin. SP37A3 DCs (murine DC line, Merck) were plated (8×10^4 cells/well, 96-well flat bottom, tissue-culture treated) in 180 uL IMDM complete medium [IMDM medium (Sigma) supplemented with 10% heat-inactivated and endotoxin-tested FBS (PAA), sodium pyruvate (Gibco), penicillin/streptomycin L-glutamine mix (Gibco), MEM nonessential amino acids (Sigma) and 0.05 mM 2-mercaptoethanol (Gibco)]. IMDM complete medium was supplemented with 20 ng/mL recombinant mouse GM-CSF. DCs were allowed to adhere for two hours before Plinabulin, Paclitaxel, Etoposide, medium, or LPS (positive control) were added 10× concentrated in 20 uL. […] Cells were analyzed using a BD Fortessa Cytometer equipped with DIVA software. Mean fluorescence intensity (MFI) of the DC maturation markers CD40 (FIG. 2A), CD80 (FIG. 2B), CD86 (FIG. 2C) and MHCII (FIG. 2D) in live cells was normalized to the MFI of those markers detected in untreated (medium) DCs. The production of the pro-inflammatory cytokines IL-1β(FIG. 3A), IL-6 (FIG. 3B), and IL-12p40 (FIG. 3C) were also determined by ELISA.

CC(C)(C)c1[nH]cnc1/C=c1\[nH]c(=O)/c(=C/c2ccccc2)[nH]c1=O [Plinabulin, (3Z,6Z)-3-Benzylidene-6-{[5-(2-methyl-2-propanyl)-1H-imidazol-4-yl]methylene}-2,5-piperazinedione]
percentage of Treg cells in tumor (MC-38 tumor cells [1]; FIG. 5A, vs comparator group without plinabulin): reduction in % Treg cells; also recorded: decreased percentage of Regulatory T cells | ratio of CD8+ cells to Treg cells in tumor (MC-38 tumor cells [1]; FIG. 5B): increase in the ratio of CD8+/Treg cells | percentage of macrophages in CD45+ lymphocytes in tumor (MC-38 tumor cells [1]; FIG. 5C, vs respective comparator groups): decreased percentage of macrophage stained cells | expression of DC maturation markers CD40, CD80, CD86 and MHCII (MFI normalized to untreated DCs) (SP37A3 DCs [2]; Example 1, FIG. 1A): significantly increased expression of all four DC maturation markers | expression of DC maturation markers CD40, CD80, MHCII and CD86 compared with Paclitaxel and Etoposide (SP37A3 DCs [2]; Example 2, FIG. 2A-2D): much greater expression of all four DC maturation markers | expression of DC maturation markers compared with positive control LPS (SP37A3 DCs [2]; Example 2, FIG. 2A-2D): significantly increased expression of all four markers | induction of DC maturation, rank among Plinabulin, Paclitaxel and Etoposide (SP37A3 DCs [2]; Example 2): most potent inducer of DC maturation among all three drugs | mean tumor weight at necropsy (MC-38 tumor cells [3]): decreased tumor weight at necropsy | DC viability (SP37A3 DCs [4]): did not change significantly | production of IL1b, IL6 and IL12 (IL-12p40) compared with Paclitaxel, Etoposide and LPS (SP37A3 DCs [5]): increased production of IL1b, IL6, and IL12
